# Columns and labels:
# Assay type in all cases: biochemical
# [1] = biological target: T1, HCV NS3/4A protease complex, H77 strain (1a genotype) (Hepatitis C virus genotype 1a, UniProt P27958, C1454S/C1711G); assay: FRET peptide assay, HCV NS3/4A protease complex, H77 strain
# T1 construct: DNA encoding the recombinant HCV NS3/4A protease complex (amino acids 1027 to 1711) for these strains; His tag (inferred from pET21b vector and Ni-NTA purification); made in house; host or cells: Escherichia coli BL21 (DE3)
# T1 sequence (P27958 1027-1711 C1454S/C1711G, one chain of several): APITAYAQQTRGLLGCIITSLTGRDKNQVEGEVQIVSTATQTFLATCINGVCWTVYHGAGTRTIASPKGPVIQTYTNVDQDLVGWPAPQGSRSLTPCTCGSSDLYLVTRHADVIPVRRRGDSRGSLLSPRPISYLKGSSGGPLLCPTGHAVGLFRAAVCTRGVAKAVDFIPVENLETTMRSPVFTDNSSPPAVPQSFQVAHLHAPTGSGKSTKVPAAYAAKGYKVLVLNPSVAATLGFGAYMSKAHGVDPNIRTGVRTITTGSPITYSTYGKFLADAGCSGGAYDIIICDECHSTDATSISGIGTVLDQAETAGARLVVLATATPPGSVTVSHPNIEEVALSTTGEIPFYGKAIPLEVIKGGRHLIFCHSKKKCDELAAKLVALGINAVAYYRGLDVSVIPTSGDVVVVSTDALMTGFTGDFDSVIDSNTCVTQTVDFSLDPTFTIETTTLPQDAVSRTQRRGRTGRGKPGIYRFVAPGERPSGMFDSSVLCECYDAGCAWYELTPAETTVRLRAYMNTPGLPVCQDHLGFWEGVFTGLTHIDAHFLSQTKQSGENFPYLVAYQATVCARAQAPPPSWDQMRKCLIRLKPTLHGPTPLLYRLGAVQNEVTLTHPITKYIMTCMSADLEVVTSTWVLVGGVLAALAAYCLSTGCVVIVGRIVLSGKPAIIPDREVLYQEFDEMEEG
# Source text: (§1) HCV NS3 protease complexes, derived from the BMS strain, H77 strain or J4L6S strain, were generated, as described below. These purified recombinant proteins were generated for use in a homogeneous assay (see below) to provide an indication of how effective compounds of the present disclosure would be in inhibiting HCV NS3 proteolytic activity.
# (§2) Serum from an HCV-infected patient was obtained from Dr. T. Wright, San Francisco Hospital. An engineered full-length cDNA (compliment deoxyribonucleic acid) template of the HCV genome (BMS strain) was constructed from DNA fragments obtained by reverse transcription-PCR (RT-PCR) of serum RNA (ribonucleic acid) and using primers selected on the basis of homology between other genotype 1a strains. From the determination of the entire genome sequence, a genotype 1a was assigned to the HCV isolate according to the classification of Simmonds et al. (See P Simmonds, K A Rose, S Graham, S W Chan, F McOmish, B C Dow, E A Follett, P L Yap and H Marsden, J. Clin. Microbiol., 31(6), 1493-1503 (1993)). […]
# [2] = biological target: T2, HCV NS3/4A protease complex, J4L6S strain (1b genotype) (Hepatitis C virus genotype 1b, UniProt O92972, C1454S/C1711G); assay: FRET peptide assay, HCV NS3/4A protease complex, J4L6S strain
# T2 construct: DNA encoding the recombinant HCV NS3/4A protease complex (amino acids 1027 to 1711) for these strains; His tag (inferred from pET21b vector and Ni-NTA purification); made in house; host or cells: Escherichia coli BL21 (DE3)
# T2 sequence (O92972 1027-1711 C1454S/C1711G, one chain of several): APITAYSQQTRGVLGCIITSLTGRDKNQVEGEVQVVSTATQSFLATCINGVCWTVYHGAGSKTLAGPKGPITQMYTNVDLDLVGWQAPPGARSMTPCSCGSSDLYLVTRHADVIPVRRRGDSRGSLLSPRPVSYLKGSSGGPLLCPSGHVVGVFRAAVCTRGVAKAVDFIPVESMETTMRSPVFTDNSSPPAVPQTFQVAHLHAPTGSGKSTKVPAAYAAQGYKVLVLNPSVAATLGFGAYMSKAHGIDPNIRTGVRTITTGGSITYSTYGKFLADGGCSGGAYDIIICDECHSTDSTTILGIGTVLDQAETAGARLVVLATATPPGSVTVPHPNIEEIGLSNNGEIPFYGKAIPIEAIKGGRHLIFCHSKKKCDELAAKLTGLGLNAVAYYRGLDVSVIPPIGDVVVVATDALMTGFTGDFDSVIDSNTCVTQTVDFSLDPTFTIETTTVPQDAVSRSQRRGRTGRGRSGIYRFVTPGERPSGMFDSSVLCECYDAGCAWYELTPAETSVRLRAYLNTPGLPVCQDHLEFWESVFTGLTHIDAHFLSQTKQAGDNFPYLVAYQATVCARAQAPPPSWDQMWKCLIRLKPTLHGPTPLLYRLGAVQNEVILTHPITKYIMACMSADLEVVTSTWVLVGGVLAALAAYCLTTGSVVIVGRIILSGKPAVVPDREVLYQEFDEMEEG
# Source text: as §1, §2
# [3] = system: human pancreatic chymotrypsin; assay: Specificity assay, chymotrypsin; conditions: read-out: Chymotrypsin activity in the specificity assays
# Experimental: The specificities of compounds of the present disclosure were determined against a variety of serine proteases: human neutrophil elastase (HNE), porcine pancreatic elastase (PPE) and human pancreatic chymotrypsin and one cysteine protease: human liver cathepsin B. In all cases a 96-well plate format protocol using a fluorometric Amino-Methyl-Coumarin (AMC) substrate specific for each enzyme was used as described previously (PCT Patent Application No. WO 00/09543) with some modifications to the serine protease assays. All enzymes were purchased from Sigma, EMDbiosciences while the substrates were from Bachem, Sigma and EMDbiosciences.
# Compound concentrations varied from 100 to 0.4 μM depending on their potency. The enzyme assays were each initiated by addition of substrate to enzyme-inhibitor pre-incubated for 10 min at room temperature and hydrolysis to 15% conversion as measured on cytofluor. […]
# The percentage of inhibition was calculated using the formula: […]
smiles,measurement,setting,value
"COc1ccc2c(O[C@@H]3C[C@H]4C(=O)N[C@]5(C(=O)NS(=O)(=O)C6CC6)C[C@H]5/C=C\CCCCC[C@H](Nc5ccc(OC)nc5)C(=O)N4C3)nccc2c1 (single isomer, unassigned) [Compound 1]",IC50,[1],1.9 nM
same,IC50,[2],1.2 nM
same,IC50,[3],25000 nM

# — US20090285773A1, “Hepatitis C Virus Inhibitors” (Bristol-Myers Squibb Company, priority 2008, published 2009)
